According to patent US5508383A, “Cyclic peptide LHRH antagonists” (Tap Holdings Inc., priority 1994, dated 1996):
Where a SMILES comes first, the peptide text is derived from it. Bridges are numbered along the chain shown (N, C = ends). [ ]: non-standard residue; d: D form. The star is where a group is joined. Propanoyl(3-(4-Cl-Ph)) = O=C(CCc1ccc(Cl)cc1)*; Phenylacetyl(4-F) = O=C(Cc1ccc(F)cc1)*; Lys(iPr) = CC(C)NCCCC[C@H](N)C(=O)O; NMeY = CN[C@@H](Cc1ccc(O)cc1)C(=O)O; Nicotinoyl = O=C(c1cccnc1)*

molecular target: T1, LHRH (Rattus norvegicus, UniProt P30969); experiment: in vitro test for LHRH antagonist potency (pA2), shift of the leuprolide response curve; format: cell-based; settings: negative logarithm of antagonist concentration required to shift the response curve produced by the agonist leuprolide to two-fold higher concentration
T1 construct: endogenous in cells; host or cells: pituitary cells (own knowledge of the cited method)
T1 sequence (P30969 1-327): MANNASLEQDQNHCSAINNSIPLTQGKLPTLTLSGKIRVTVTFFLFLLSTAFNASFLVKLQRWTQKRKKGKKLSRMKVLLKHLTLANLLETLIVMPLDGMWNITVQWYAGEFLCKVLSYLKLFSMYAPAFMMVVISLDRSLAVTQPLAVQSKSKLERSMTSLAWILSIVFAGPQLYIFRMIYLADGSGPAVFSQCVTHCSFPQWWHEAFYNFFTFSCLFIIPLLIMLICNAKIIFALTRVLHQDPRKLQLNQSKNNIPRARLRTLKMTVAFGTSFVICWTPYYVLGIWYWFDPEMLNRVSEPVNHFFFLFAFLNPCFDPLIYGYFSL
Protocol: Representative compounds of the present invention were evaluated in an in vitro test for LHRH antagonist potency (pA2). The test employed the method detailed in F. Haviv, et al. J. Med. Chem., 32: 2340-2344 (1989). The values of pA2 are the negative logarithms of the concentration of the particular antagonist test compound required to shift the response curve produced by the agonist leuprolide to two-fold higher concentration. (Leuprolide is the LHRH agonist having the structure 5-oxo-Pro^1 -His^2 -Trp^3 -Ser^4 -Tyr^5 -D-Leu^6 -Leu^7 -Arg^8 -Pro-^9 -NHEt and is disclosed and claimed in U.S. Pat. No. 4,005,063.) Typically pA2 values of 6.0 or greater are indicative of acceptable LHRH antagonist potency, with compounds having pA2 values of 9.0 or greater being preferred.

Which pA2 does the source give for “4FPhenylacetyl-c-{DGlu-Ser-NMeTyr-DLys(Nicotinyl)-Leu-Lys(N-epsilon-Isopropyl)-Pro-DLys}-NH2 [Example 15]” here?
The pA2 was 5.66.

How did the pA2 turn out when “Ac-D2Nal-D4ClPhe-c-{Lys-Ser-NMeTyr-DLys(Nicotinyl)-Leu-Lys(N-epsilon-Isopropyl)-Pro-DGlu}-NH2 [Example 3]” was run?
Its pA2 is 8.73.

For “Ac-D2Nal-D4ClPhe-c-{DGlu-Ser-NMeTyr-DLys(Nicotinyl)-Leu-Lys(N-epsilon-Isopropyl)-Pro-DLys}-NH2 [Example 7]”, which pA2 is on record?
Its pA2 is 9.58.

With `CC(C)C[C@@H]1NC(=O)[C@@H](CCCCNC(=O)c2cccnc2)NC(=O)[C@H](Cc2ccc(O)cc2)N(C)C(=O)[C@H](CO)NC(=O)[C@H](NC(=O)Cc2ccc(F)cc2)CCCCNC(=O)CC[C@H](C(N)=O)NC(=O)[C@@H]2CCCN2C(=O)[C@H](CCCCNC(C)C)NC1=O` [Example 10, 4F-Phenylacetyl-c-{DLys-Ser-NMeTyr-DLys(Nicotinyl)-Leu-Lys(N-epsilon-Isopropyl)-Pro-DGlu}-NH2] ({Phenylacetyl(4-F)}-[dK]S[NMeY][dK](Nicotinoyl)L[Lys(iPr)]P[dE]-NH2; lactam 1-8) as the compound, how does the Kb read?
Its Kb is 724 nM.

How did the pA2 turn out when “Ac-D2Nal-D4ClPhe-c-{DLys-Ser-Tyr-DLys(Nicotinyl)-Leu-Lys(N-epsilon-Isopropyl)-Pro-Glu}-NH2 [Example 2]” was run?
The pA2 was 9.27.

`CC(C)C[C@@H]1NC(=O)[C@@H](CCCCNC(=O)c2cccnc2)NC(=O)[C@H](Cc2ccc(O)cc2)N(C)C(=O)[C@H](CO)NC(=O)[C@H](NC(=O)CCc2ccc(Cl)cc2)CCCCNC(=O)CC[C@H](C(N)=O)NC(=O)[C@@H]2CCCN2C(=O)[C@H](CCCCNC(C)C)NC1=O` [Example 13, 4ClPhenylpropionyl-c-{DLys-Ser-NMeTyr-DLys(Nicotinyl)-Leu-Lys(N-epsilon-Isopropyl)-Pro-DGlu}-NH2] ({Propanoyl(3-(4-Cl-Ph))}-[dK]S[NMeY][dK](Nicotinoyl)L[Lys(iPr)]P[dE]-NH2; lactam 1-8) was tested. Which Kb did it give?
The Kb was 19.1 nM.

With `CC(=O)N[C@@H]1CCC(=O)NCCCC[C@H](C(N)=O)NC(=O)[C@@H]2CCCN2C(=O)[C@H](CCCCNC(C)C)NC(=O)[C@H](CC(C)C)NC(=O)[C@@H](CCCCNC(=O)c2cccnc2)NC(=O)[C@H](Cc2ccc(O)cc2)N(C)C(=O)[C@H](CO)NC1=O` [Example 11, Ac-c-{DGlu-Ser-NMeTyr-DLys(Nicotinyl)-Leu-Lys(N-epsilon-Isopropyl)-Pro-DLys}-NH2] (Ac-[dE]S[NMeY][dK](Nicotinoyl)L[Lys(iPr)]P[dK]-NH2; lactam 1-8) as the compound, how does the Kb read?
Its Kb is 20.4 nM.

Which pA2 does the source give for “Ac-D2Nal-D4ClPhe-c-{DOrn-Ser-NMeTyr-DLys(Nicotinyl)-Leu-Lys(N-epsilon-Isopropyl)-Pro-DGlu}-NH2 [Example 14]” here?
The pA2 was 9.52.

With “Ac-D2Nal-D4ClPhe-c-{DLys-Ser-Tyr-DLys(Nicotinyl)-Leu-Lys(N-epsilon-Isopropyl)-Pro-DGlu}-NH2 [Example 8]” as the compound, how does the pA2 read?
The pA2 was 9.66.

For “Ac-D2Nal-D4ClPhe-c-{Glu-Ser-NMeTyr-DLys(Nicotinyl)-Leu-Lys(N-epsilon-Isopropyl)-Pro-DOrn}-NH2 [Example 6]”, which pA2 is on record?
Its pA2 is 7.54.

Which pA2 does the source give for “NAc-c-{DGlu-Gly-NMeTyr-DLys(Nicotinyl)-Leu-Lys(N-epsilon-Isopropyl)-Sar-DLys}-NH2 [Example 19]” here?
The pA2 was 5.95.

“Ac-D2Nal-D4ClPhe-c-{DGlu-Ser-NMeTyr-DLys(Nicotinyl)-Leu-Lys(N-epsilon-Isopropyl)-Pro-Lys}-NH2 [Example 12]” was tested. Which pA2 did it give?
Its pA2 is 9.77.

`CC(C)C[C@@H]1NC(=O)[C@@H](CCCCNC(=O)c2cccnc2)NC(=O)[C@H](Cc2ccc(O)cc2)N(C)C(=O)[C@H](CO)NC(=O)[C@H](NC(=O)CCc2ccc(Cl)cc2)CCCCNC(=O)CC[C@H](C(N)=O)NC(=O)CNC(=O)[C@H](CCCCNC(C)C)NC1=O` [Example 16, 4ClPhenylpropionyl-c-{DLys-Ser-NMeTyr-DLys(Nicotinyl)-Leu-Lys(N-epsilon-Isopropyl)-Gly-DGlu}-NH2] ({Propanoyl(3-(4-Cl-Ph))}-[dK]S[NMeY][dK](Nicotinoyl)L[Lys(iPr)]G[dE]-NH2; lactam 1-8) was tested. Which Kb did it give?
Its Kb is 40.7 nM.

With “NAc-D2Nal D4ClPhe-c-{DLys-Gly-NMeTyr-DLys(Nicotinyl)-Leu-Lys(N-epsilon-Isopropyl)-Gly-DGlu}-NH2 [Example 17]” as the compound, how does the pA2 read?
Its pA2 is 8.29.

How did the pA2 turn out when “Ac-D2Nal-D4ClPhe-c-{Lys-Ser-NMeTyr-DLys(Nicotinyl)-Leu-Lys(N-epsilon-Isopropyl)-Pro-Glu}-NH2 [Example 5]” was run?
Its pA2 is 8.2.

How did the pA2 turn out when “Ac-D2Nal-D4ClPhe-c-{DLys-Ser-NMeTyr-DLys(Nicotinyl)-Leu-Lys(N-epsilon-Isopropyl)-Pro-Glu}-NH2 [Example 4]” was run?
Its pA2 is 10.05.

`CC(=O)N[C@@H]1CCCCNC(=O)CC[C@H](C(N)=O)NC(=O)[C@@H]2CCCN2C(=O)[C@H](CCCCNC(C)C)NC(=O)[C@H](CC(C)C)NC(=O)[C@@H](CCCCNC(=O)c2cccnc2)NC(=O)[C@H](Cc2ccc(O)cc2)N(C)C(=O)[C@H](CO)NC1=O` [Example 9, Ac-c-{DLys-Ser-NMeTyr-DLys(Nicotinyl)-Leu-Lys(N-epsilon-Isopropyl)-Pro-DGlu}-NH2] (Ac-[dK]S[NMeY][dK](Nicotinoyl)L[Lys(iPr)]P[dE]-NH2; lactam 1-8) was tested. Which Kb did it give?
The Kb was 6.17 nM.

Which Kb does the source give for `CC(C)C[C@@H]1NC(=O)[C@@H](CCCCNC(=O)c2cccnc2)NC(=O)[C@H](Cc2ccc(O)cc2)N(C)C(=O)CNC(=O)[C@H](NC(=O)CCc2ccc(Cl)cc2)CCCCNC(=O)CC[C@H](C(N)=O)NC(=O)CNC(=O)[C@H](CCCCNC(C)C)NC1=O` [Example 18, 4ClPhepropionyl-c-{DLys-Gly-NMeTyr-DLys(Nicotinyl)-Leu-Lys(N-epsilon-Isopropyl)-Gly-DGlu}-NH2] ({Propanoyl(3-(4-Cl-Ph))}-[dK]G[NMeY][dK](Nicotinoyl)L[Lys(iPr)]G[dE]-NH2; lactam 1-8) here?
The Kb was greater than 1000 nM.

Which pA2 does the source give for “Ac-D2Nal-D4ClPhe-c-{DLys-Ser-NMeTyr-DLys(Nicotinyl)-Leu-Lys(N-epsilon-Isopropyl)-Pro-DGlu}-NH2 [Example 1]” here?
Its pA2 is 10.16.
